Measured values from PubChem BioAssay (NCI).
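The compound was tested at five concentrations on cells cultured in 96-well plates, with a 48-hour exposure period. At the TGI there is no net growth.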

Tests used:
Assay in all cases: DTP human tumour cell line panel, 48 h
786-0 renal = system: 786-0 renal
A498 renal = system: A498 renal
A549 NSCLC = system: A549 NSCLC
ACHN renal = system: ACHN renal
BT-549 breast = system: BT-549 breast
CAKI-1 renal = system: CAKI-1 renal
CCRF-CEM leukemia = system: CCRF-CEM leukemia
COLO 205 colon = system: COLO 205 colon
EKVX NSCLC = system: EKVX NSCLC
HCC-2998 colon = system: HCC-2998 colon
HCT-116 colon = system: HCT-116 colon
HCT-15 colon = system: HCT-15 colon
HL-60(TB) leukemia = system: HL-60(TB) leukemia
HOP-62 NSCLC = system: HOP-62 NSCLC
HOP-92 NSCLC = system: HOP-92 NSCLC
HS 578T breast = system: HS 578T breast
HT29 colon = system: HT29 colon
IGROV1 ovarian = system: IGROV1 ovarian
K-562 leukemia = system: K-562 leukemia
KM12 colon = system: KM12 colon
LOX IMVI melanoma = system: LOX IMVI melanoma
M14 melanoma = system: M14 melanoma
MALME-3M melanoma = system: MALME-3M melanoma
MCF7 breast = system: MCF7 breast
MDA-MB-231 breast = system: MDA-MB-231 breast
MDA-MB-435 = system: MDA-MB-435
MDA-N = system: MDA-N
MOLT-4 leukemia = system: MOLT-4 leukemia
NCI-H226 lung = system: NCI-H226 lung
NCI-H460 lung = system: NCI-H460 lung
NCI-H522 lung = system: NCI-H522 lung
NCI/ADR-RES ovarian = system: NCI/ADR-RES ovarian
OVCAR-4 ovarian = system: OVCAR-4 ovarian
OVCAR-5 ovarian = system: OVCAR-5 ovarian
OVCAR-8 ovarian = system: OVCAR-8 ovarian
PC-3 prostate = system: PC-3 prostate
RPMI-8226 leukemia = system: RPMI-8226 leukemia
RXF 393 renal = system: RXF 393 renal
SF-268 CNS = system: SF-268 CNS
SF-295 CNS = system: SF-295 CNS
SF-539 CNS = system: SF-539 CNS
SK-MEL-2 melanoma = system: SK-MEL-2 melanoma
SK-MEL-28 melanoma = system: SK-MEL-28 melanoma
SK-MEL-5 melanoma = system: SK-MEL-5 melanoma
SK-OV-3 ovarian = system: SK-OV-3 ovarian
SN12C renal = system: SN12C renal
SNB-19 CNS = system: SNB-19 CNS
SNB-75 CNS = system: SNB-75 CNS
SW-620 colon = system: SW-620 colon
TK-10 renal = system: TK-10 renal
U251 CNS = system: U251 CNS
UACC-257 melanoma = system: UACC-257 melanoma
UACC-62 melanoma = system: UACC-62 melanoma
DU-145 prostate = system: DU-145 prostate
NCI-H23 lung = system: NCI-H23 lung
OVCAR-3 ovarian = system: OVCAR-3 ovarian
UO-31 renal = system: UO-31 renal
T-47D breast = system: T-47D breast

## N#Cc1c(-c2ccc(Cl)cc2)c(C#N)c(=O)n(NS(=O)(=O)c2ccccc2)c1O
786-0 renal
  TGI: > 100 µM
A498 renal
  TGI: 70.1 µM
A549 NSCLC
  TGI: > 100 µM
ACHN renal
  TGI: > 100 µM
BT-549 breast
  TGI: 32.8 µM
CAKI-1 renal
  TGI: 48 µM
CCRF-CEM leukemia
  TGI: 88.6 µM
COLO 205 colon
  TGI: > 100 µM
EKVX NSCLC
  TGI: > 100 µM
HCC-2998 colon
  TGI: 35 µM
HCT-116 colon
  TGI: 33.1 µM
HCT-15 colon
  TGI: 62.3 µM
HL-60(TB) leukemia
  TGI: 41.3 µM
HOP-62 NSCLC
  TGI: > 100 µM
HOP-92 NSCLC
  TGI: 71.1 µM
HS 578T breast
  TGI: 63.9 µM
HT29 colon
  TGI: > 100 µM
IGROV1 ovarian
  TGI: > 100 µM
K-562 leukemia
  TGI: > 100 µM
KM12 colon
  TGI: 77.8 µM
LOX IMVI melanoma
  TGI: 30.7 µM
M14 melanoma
  TGI: > 100 µM
MALME-3M melanoma
  TGI: > 100 µM
MCF7 breast
  TGI: 42.9 µM
MDA-MB-231 breast
  TGI: 98.2 µM
MDA-MB-435
  TGI: > 100 µM
MDA-N
  TGI: > 100 µM
MOLT-4 leukemia
  TGI: 71.2 µM
NCI-H226 lung
  TGI: > 100 µM
NCI-H460 lung
  TGI: 55 µM
NCI-H522 lung
  TGI: > 100 µM
NCI/ADR-RES ovarian
  TGI: 93 µM
OVCAR-4 ovarian
  TGI: > 100 µM
OVCAR-5 ovarian
  TGI: > 100 µM
OVCAR-8 ovarian
  TGI: > 100 µM
PC-3 prostate
  TGI: 48.8 µM
RPMI-8226 leukemia
  TGI: 26.2 µM
RXF 393 renal
  TGI: 69.6 µM
SF-268 CNS
  TGI: > 100 µM
SF-295 CNS
  TGI: > 100 µM
SF-539 CNS
  TGI: 55.6 µM
SK-MEL-2 melanoma
  TGI: 44 µM
SK-MEL-28 melanoma
  TGI: > 100 µM
SK-MEL-5 melanoma
  TGI: 32.3 µM
SK-OV-3 ovarian
  TGI: 79 µM
SN12C renal
  TGI: > 100 µM
SNB-19 CNS
  TGI: > 100 µM
SNB-75 CNS
  TGI: > 100 µM
SW-620 colon
  TGI: > 100 µM
TK-10 renal
  TGI: > 100 µM
U251 CNS
  TGI: > 100 µM
UACC-257 melanoma
  TGI: > 100 µM
UACC-62 melanoma
  TGI: 29.6 µM

## COC(=O)c1nsc(OC)c1Cl
786-0 renal
  TGI: > 100 µM
A549 NSCLC
  TGI: > 100 µM
BT-549 breast
  TGI: > 100 µM
CAKI-1 renal
  TGI: > 100 µM
CCRF-CEM leukemia
  TGI: > 100 µM
COLO 205 colon
  TGI: > 100 µM
DU-145 prostate
  TGI: > 100 µM
EKVX NSCLC
  TGI: > 100 µM
HCC-2998 colon
  TGI: > 100 µM
HCT-116 colon
  TGI: > 100 µM
HCT-15 colon
  TGI: > 100 µM
HL-60(TB) leukemia
  TGI: > 100 µM
HOP-62 NSCLC
  TGI: > 100 µM
HS 578T breast
  TGI: > 100 µM
HT29 colon
  TGI: > 100 µM
IGROV1 ovarian
  TGI: > 100 µM
K-562 leukemia
  TGI: > 100 µM
KM12 colon
  TGI: > 100 µM
LOX IMVI melanoma
  TGI: > 100 µM
M14 melanoma
  TGI: > 100 µM
MALME-3M melanoma
  TGI: > 100 µM
MCF7 breast
  TGI: > 100 µM
MDA-MB-231 breast
  TGI: > 100 µM
MDA-MB-435
  TGI: > 100 µM
MDA-N
  TGI: > 100 µM
MOLT-4 leukemia
  TGI: > 100 µM
NCI-H226 lung
  TGI: > 100 µM
NCI-H23 lung
  TGI: > 100 µM
NCI/ADR-RES ovarian
  TGI: > 100 µM
OVCAR-3 ovarian
  TGI: > 100 µM
OVCAR-4 ovarian
  TGI: > 100 µM
OVCAR-5 ovarian
  TGI: > 100 µM
OVCAR-8 ovarian
  TGI: > 100 µM
PC-3 prostate
  TGI: > 100 µM
RPMI-8226 leukemia
  TGI: > 100 µM
RXF 393 renal
  TGI: > 100 µM
SF-268 CNS
  TGI: > 100 µM
SF-295 CNS
  TGI: > 100 µM
SF-539 CNS
  TGI: > 100 µM
SK-MEL-28 melanoma
  TGI: > 100 µM
SK-MEL-5 melanoma
  TGI: > 100 µM
SK-OV-3 ovarian
  TGI: > 100 µM
SN12C renal
  TGI: > 100 µM
SNB-19 CNS
  TGI: > 100 µM
SNB-75 CNS
  TGI: > 100 µM
SW-620 colon
  TGI: > 100 µM
TK-10 renal
  TGI: > 100 µM
U251 CNS
  TGI: > 100 µM
UACC-257 melanoma
  TGI: > 100 µM
UACC-62 melanoma
  TGI: > 100 µM
UO-31 renal
  TGI: > 100 µM

## Cc1nc2ccc(F)cc2c2c1CCN2c1ccc(Cl)cc1
786-0 renal
  TGI: 34.9 µM
A498 renal
  TGI: 73.1 µM
A549 NSCLC
  TGI: > 100 µM
ACHN renal
  TGI: 96.2 µM
BT-549 breast
  TGI: 67.2 µM
CAKI-1 renal
  TGI: 79.6 µM
CCRF-CEM leukemia
  TGI: 31 µM
COLO 205 colon
  TGI: 20.6 µM
DU-145 prostate
  TGI: > 100 µM
HCC-2998 colon
  TGI: 29.4 µM
HCT-116 colon
  TGI: 36.2 µM
HCT-15 colon
  TGI: > 100 µM
HL-60(TB) leukemia
  TGI: 17.7 µM
HOP-62 NSCLC
  TGI: 56.4 µM
HS 578T breast
  TGI: 79.5 µM
HT29 colon
  TGI: 22.4 µM
IGROV1 ovarian
  TGI: 40 µM
K-562 leukemia
  TGI: 13.4 µM
LOX IMVI melanoma
  TGI: 33 µM
M14 melanoma
  TGI: 21.4 µM
MALME-3M melanoma
  TGI: 26.9 µM
MCF7 breast
  TGI: 26.4 µM
MDA-MB-231 breast
  TGI: 30.6 µM
MDA-MB-435
  TGI: 33.5 µM
MDA-N
  TGI: 21.7 µM
NCI-H226 lung
  TGI: 72.2 µM
NCI-H23 lung
  TGI: 48.2 µM
NCI-H460 lung
  TGI: 47.7 µM
NCI-H522 lung
  TGI: 30.5 µM
NCI/ADR-RES ovarian
  TGI: 19.8 µM
OVCAR-3 ovarian
  TGI: > 100 µM
OVCAR-4 ovarian
  TGI: > 100 µM
OVCAR-5 ovarian
  TGI: > 100 µM
OVCAR-8 ovarian
  TGI: 34.2 µM
PC-3 prostate
  TGI: 22.7 µM
RXF 393 renal
  TGI: 55.7 µM
SF-268 CNS
  TGI: > 100 µM
SF-295 CNS
  TGI: > 100 µM
SF-539 CNS
  TGI: 24.3 µM
SK-MEL-2 melanoma
  TGI: 41.4 µM
SK-MEL-28 melanoma
  TGI: 28 µM
SK-MEL-5 melanoma
  TGI: 12.3 µM
SK-OV-3 ovarian
  TGI: > 100 µM
SN12C renal
  TGI: 97.6 µM
SNB-19 CNS
  TGI: > 100 µM
SNB-75 CNS
  TGI: > 100 µM
SW-620 colon
  TGI: 54.8 µM
TK-10 renal
  TGI: 41.7 µM
U251 CNS
  TGI: 71.8 µM
UACC-257 melanoma
  TGI: 13.8 µM
UACC-62 melanoma
  TGI: 39.1 µM
UO-31 renal
  TGI: 78.3 µM

## CCSC1=N/C(=C\c2ccc(N(C)C)cc2)C(Cl)=N1
786-0 renal
  TGI: > 100 µM
A498 renal
  TGI: > 100 µM
A549 NSCLC
  TGI: > 100 µM
ACHN renal
  TGI: > 100 µM
BT-549 breast
  TGI: > 100 µM
CAKI-1 renal
  TGI: > 100 µM
CCRF-CEM leukemia
  TGI: > 100 µM
COLO 205 colon
  TGI: > 100 µM
DU-145 prostate
  TGI: > 100 µM
EKVX NSCLC
  TGI: > 100 µM
HCC-2998 colon
  TGI: > 100 µM
HCT-116 colon
  TGI: > 100 µM
HCT-15 colon
  TGI: > 100 µM
HL-60(TB) leukemia
  TGI: > 100 µM
HOP-62 NSCLC
  TGI: > 100 µM
HOP-92 NSCLC
  TGI: > 100 µM
HS 578T breast
  TGI: > 100 µM
HT29 colon
  TGI: > 100 µM
IGROV1 ovarian
  TGI: > 100 µM
KM12 colon
  TGI: > 100 µM
M14 melanoma
  TGI: > 100 µM
MALME-3M melanoma
  TGI: > 100 µM
MCF7 breast
  TGI: > 100 µM
MDA-MB-231 breast
  TGI: > 100 µM
MDA-MB-435
  TGI: > 100 µM
MDA-N
  TGI: > 100 µM
MOLT-4 leukemia
  TGI: > 100 µM
NCI-H226 lung
  TGI: > 100 µM
NCI-H23 lung
  TGI: > 100 µM
NCI-H460 lung
  TGI: > 100 µM
NCI-H522 lung
  TGI: > 100 µM
NCI/ADR-RES ovarian
  TGI: > 100 µM
OVCAR-3 ovarian
  TGI: > 100 µM
OVCAR-4 ovarian
  TGI: > 100 µM
OVCAR-5 ovarian
  TGI: > 100 µM
OVCAR-8 ovarian
  TGI: > 100 µM
PC-3 prostate
  TGI: > 100 µM
RPMI-8226 leukemia
  TGI: > 100 µM
RXF 393 renal
  TGI: > 100 µM
SF-268 CNS
  TGI: > 100 µM
SF-295 CNS
  TGI: > 100 µM
SK-MEL-2 melanoma
  TGI: > 100 µM
SK-MEL-28 melanoma
  TGI: > 100 µM
SK-MEL-5 melanoma
  TGI: > 100 µM
SK-OV-3 ovarian
  TGI: > 100 µM
SN12C renal
  TGI: > 100 µM
SNB-19 CNS
  TGI: > 100 µM
SNB-75 CNS
  TGI: > 100 µM
SW-620 colon
  TGI: > 100 µM
T-47D breast
  TGI: > 100 µM
TK-10 renal
  TGI: > 100 µM
U251 CNS
  TGI: > 100 µM
UACC-257 melanoma
  TGI: > 100 µM
UACC-62 melanoma
  TGI: > 100 µM
UO-31 renal
  TGI: > 100 µM
